# Experimental data taken from ChEMBL document CHEMBL1156512, “Accumulation of glucosylceramide in murine testis, caused by inhibition of beta-glucosidase 2: implications for spermatogenesis” (J Biol Chem, 2007).
# Active and inactive are the calls of the source. No cut-off for these calls is given here.
# Assays:
# Beta-glucosidase = molecular target: T1, Beta-glucosidase (Homo sapiens, UniProt Q9HCG7); assay: Inhibition of bile acid beta-glucosidase activity of human liver GBA2
# T1 sequence (Q9HCG7 whole entry): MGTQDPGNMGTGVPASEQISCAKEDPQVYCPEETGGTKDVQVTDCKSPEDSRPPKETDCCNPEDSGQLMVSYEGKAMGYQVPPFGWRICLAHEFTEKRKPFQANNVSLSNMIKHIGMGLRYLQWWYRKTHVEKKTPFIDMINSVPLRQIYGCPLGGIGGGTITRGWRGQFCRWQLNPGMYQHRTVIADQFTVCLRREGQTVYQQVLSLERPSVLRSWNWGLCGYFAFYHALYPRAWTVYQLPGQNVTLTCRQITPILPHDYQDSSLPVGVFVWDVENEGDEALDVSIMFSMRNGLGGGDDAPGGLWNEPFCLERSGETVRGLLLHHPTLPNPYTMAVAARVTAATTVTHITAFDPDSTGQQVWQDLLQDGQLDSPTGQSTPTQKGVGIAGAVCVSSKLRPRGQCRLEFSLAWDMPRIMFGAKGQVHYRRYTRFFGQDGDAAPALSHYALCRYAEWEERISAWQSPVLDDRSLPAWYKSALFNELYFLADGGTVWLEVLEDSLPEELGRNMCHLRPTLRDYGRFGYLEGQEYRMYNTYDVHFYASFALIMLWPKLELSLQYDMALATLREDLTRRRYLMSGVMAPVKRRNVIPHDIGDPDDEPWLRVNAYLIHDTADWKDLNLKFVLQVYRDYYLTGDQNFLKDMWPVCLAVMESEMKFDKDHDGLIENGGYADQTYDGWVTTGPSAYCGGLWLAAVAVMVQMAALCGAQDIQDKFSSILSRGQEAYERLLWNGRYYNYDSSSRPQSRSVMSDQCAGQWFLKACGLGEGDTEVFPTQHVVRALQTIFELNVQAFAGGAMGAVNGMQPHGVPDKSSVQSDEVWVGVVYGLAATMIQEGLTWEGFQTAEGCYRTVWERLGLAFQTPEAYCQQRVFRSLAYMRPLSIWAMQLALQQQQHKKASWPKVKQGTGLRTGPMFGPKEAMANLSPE
# Mus musculus [1] = assay: Effect on spermatogenesis in C3H mouse assessed as morphological changes in spermatozoa at 150 mg/kg/day administered with chow; type: functional, organism-based
# Mus musculus [2] = assay: Increase in complex glycosylated sphingolipids level in C57BL/6 mouse testes at 15 mg/kg/day administered with chow after 6 to 9 months; type: functional, organism-based; conditions: Testis
# Mus musculus [3] = assay: Effect on testicular ceramides level in C57BL/6 mouse at 150 mg/kg/day administered with chow; type: functional, organism-based
# Mus musculus [4] = assay: Effect on spermatogenesis in AKR mouse assessed as morphological changes in spermatozoa at 150 mg/kg/day administered with chow; type: functional, organism-based
# Mus musculus [5] = assay: Effect on spermatogenesis in BALB/c mouse assessed as morphological changes in spermatozoa at 150 mg/kg/day administered with chow; type: functional, organism-based
# Mus musculus [6] = assay: Effect on spermatogenesis in MA/My mouse assessed as morphological changes in spermatozoa at 150 mg/kg/day administered with chow; type: functional, organism-based
# Mus musculus [7] = species on record: Mus musculus; assay: Increase in neutral glycolipids level in C57BL/6 mouse testes; type: functional, organism-based; conditions: Testis
# Mus musculus [8] = assay: Increase in glucosylceramide level in C57BL/6 mouse spleen administered with chow; type: functional, organism-based
# Mus musculus [9] = assay: Decrease in testicular very long chain polyunsaturated fatty acid sphingomyelin level in beta-glucosidase 2 deficient C57BL/6-129S1 mouse at 150 mg/kg/day administered with chow; type: functional, organism-based
# Mus musculus [10] = assay: Effect on testicular sphingomyelin level in C57BL/6 mouse at 150 mg/kg/day administered with chow; type: functional, organism-based
# Mus musculus [11] = species on record: Mus musculus; assay: Effect on glucosylceramide level in C57BL/6 mouse testes; type: functional, organism-based; conditions: Testis
# Mus musculus [12] = assay: Effect on spermatogenesis in NZW mouse assessed as morphological changes in spermatozoa at 150 mg/kg/day administered with chow; type: functional, organism-based
# Mus musculus [13] = assay: Increase in glucosylceramide level in GBA2 deficient C57BL/6-129S1 mouse germ cells at 150 mg/kg/day administered with chow; type: functional, organism-based
# Mus musculus [14] = assay: Increase in glucosylceramide level in GBA2 deficient C57BL/6-129S1 mouse somatic cells at 150 mg/kg/day administered with chow; type: functional, organism-based
# Mus musculus [15] = assay: Increase in long and saturated glucosylceramide level in C57BL/6 mouse testes at 150 mg/kg/day administered with chow; type: functional, organism-based; conditions: Testis
# Mus musculus [16] = assay: Increase in glucosylceramide level in C57BL/6 mouse liver administered with chow; type: functional, organism-based
# Mus musculus [17] = assay: Increase in glucosylceramide level in C57BL/6 mouse testes at 300 mg/kg/day administered with chow; type: functional, organism-based; conditions: Testis
# Mus musculus [18] = assay: Effect on complex glycosylated sphingolipids level in C57BL/6 mouse testes at 15 to 50 mg/kg/day, po; type: functional, organism-based; conditions: Testis
# Mus musculus [19] = assay: Effect on spermatogenesis in FVB/N mouse assessed as morphological changes in spermatozoa at 15 mg/kg/day administered with chow; type: functional, organism-based
# Mus musculus [20] = assay: Effect on spermatogenesis in C57BL/6-129S1 mouse assessed as morphological changes in spermatozoa at 150 mg/kg/day administered with chow; type: functional, organism-based
# Mus musculus [21] = assay: Increase in glucosylceramide level in GBA2 deficient C57BL/6-129S1 mouse testes at 150 mg/kg/day administered with chow; type: functional, organism-based; conditions: Testis
# Mus musculus [22] = assay: Effect on spermatogenesis in C57BR mouse assessed as morphological changes in spermatozoa at 150 mg/kg/day administered with chow; type: functional, organism-based
# Serum = assay: Drug level in C57BL/6 mouse serum at 15 mg/kg/day assessed as enzyme activity; type: ADME, organism-based; conditions: in vivo, read-out: Drug uptake
# Mus musculus [23] = assay: Increase in glucosylceramide level in C57BL/6 mouse testes administered with chow at 15 mg/kg/day after 3 to 12 months; type: functional, Testis
# Mus musculus [24] = assay: Increase in complex glycosylated sphingolipids in C57BL/6 mouse testes at 5 mg/kg/day administered with chow; type: functional, Testis
# Mus musculus [25] = assay: Increase in glucosylceramide level in C57BL/6 mouse testes administered with chow after 5 days; type: functional, organism-based; conditions: Testis
# Mus musculus [26] = assay: Effect on spermatogenesis in C57BL/6 mouse assessed as morphological changes in spermatozoa at 150 mg/kg/day administered with chow; type: functional, organism-based
# Mus musculus [27] = assay: Effect on spermatogenesis in DBA2 mouse assessed as morphological changes in spermatozoa at 150 mg/kg/day administered with chow; type: functional, organism-based
# Mus musculus [28] = assay: Effect on spermatogenesis in C57BL/10 mouse assessed as morphological changes in spermatozoa at 15 mg/kg/day administered with chow; type: functional, organism-based
# Mus musculus [29] = assay: Effect on glucosylceramide level in C57BL/6 mouse testes at 15 mg/kg/day administered with chow; type: functional, organism-based; conditions: Testis
# Mus musculus [30] = assay: Increase in very long and polyunsaturated glucosylceramide level in C57BL/6 mouse testes at 150 mg/kg/day administered with chow; type: functional, organism-based; conditions: Testis
# Mus musculus [31] = assay: Reduction of complex glycosylated sphingolipids level in C57BL/6 mouse testes at 2400 mg/kg/day administered with chow; type: functional; set-up: scale not given: the % may be the effect or the level left
# Mus musculus [32] = assay: Increase in glucosylceramide level in C57BL/6 mouse brain at 1200 mg/kg/day administered with chow; type: functional, organism-based
# [33] = molecular target: T2, Ceramide glucosyltransferase (Mus musculus, UniProt O88693); assay: Inhibition mouse glucosylceramide synthase
# T2 sequence (O88693 whole entry): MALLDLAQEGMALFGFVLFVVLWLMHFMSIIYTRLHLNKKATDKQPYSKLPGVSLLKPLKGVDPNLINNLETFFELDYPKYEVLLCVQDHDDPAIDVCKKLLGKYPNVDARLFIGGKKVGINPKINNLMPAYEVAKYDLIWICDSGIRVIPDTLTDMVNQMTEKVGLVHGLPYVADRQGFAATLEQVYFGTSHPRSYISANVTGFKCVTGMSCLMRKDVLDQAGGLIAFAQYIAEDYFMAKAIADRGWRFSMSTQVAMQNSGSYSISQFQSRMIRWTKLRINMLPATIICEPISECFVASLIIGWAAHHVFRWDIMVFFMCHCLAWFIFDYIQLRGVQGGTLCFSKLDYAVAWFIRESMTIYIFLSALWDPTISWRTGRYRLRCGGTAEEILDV
smiles,measurement,setting,value
CCCCCCCCCCCCN1C[C@H](O)[C@@H](O)[C@H](O)[C@H]1CO,IC50,Beta-glucosidase,2 nM
CCCCCCCCCOC(=O)N1C[C@H](O)[C@@H](O)[C@H](O)[C@H]1CO,IC50,Beta-glucosidase,20 nM
CCCCN1C[C@H](O)[C@@H](O)[C@H](O)[C@H]1CO,Activity,Mus musculus [1],inactive
same,Activity,Mus musculus [2],Active
same,Activity,Mus musculus [3],inactive
same,Activity,Mus musculus [4],inactive
same,Activity,Mus musculus [5],inactive
same,Activity,Mus musculus [6],inactive
same,Activity,Mus musculus [7],Active
same,Activity,Mus musculus [8],Active
same,Activity,Mus musculus [9],Active
same,Activity,Mus musculus [10],inactive
same,Activity,Mus musculus [11],Dose-dependent effect
same,Activity,Mus musculus [12],inactive
same,Activity,Mus musculus [13],Active
same,Activity,Mus musculus [14],Active
same,Activity,Mus musculus [15],Active
same,Activity,Mus musculus [16],inactive
same,Activity,Mus musculus [17],Active
same,Activity,Mus musculus [18],inactive
same,Activity,Mus musculus [19],inactive
same,Activity,Mus musculus [20],inactive
same,Activity,Mus musculus [21],Active
same,Activity,Mus musculus [22],Active
same,concentration,Serum,490 nM
same,Activity,Mus musculus [23],5
same,Activity,Mus musculus [24],15%
same,Activity,Mus musculus [25],Active
same,Activity,Mus musculus [26],Active
same,Activity,Mus musculus [27],inactive
same,Activity,Mus musculus [28],Active
same,Activity,Mus musculus [29],Active
same,Activity,Mus musculus [30],Active
same,Activity,Mus musculus [31],22%
same,Activity,Mus musculus [32],Active
CCCCN1[C@H](CO)[C@H](O)[C@H](O)[C@@H](O)[C@@H]1O,IC50,[33],5300 nM
